Laboratory results: patent publication US20200000775A1, “ATTENUATION OF NEUROPATHIC PAIN AFTER SPINAL CORD INJURY” (University of Kentucky Research Foundation, priority 2018, published 2020)

Key:
[1] = system: rat excitotoxic SCI pain model; experiment: Spontaneous pain-related excessive grooming behavior after excitotoxic SCI (intraspinal QUIS); assay type: in vivo
Text: Male Sprague-Dawley (SD) adult rats at 3 months, weighing 220-250 g, were used (Charles River, Indianapolis, Ind.). Rats were kept under standard housing conditions (12:12 light and dark cycle) with food and water ad libitum for at least 1 week following arrival in an enclosed, pathogen-free animal facility. All experimental procedures were approved and carried out in accordance with the Guidelines of the US National Institutes of Health and Institutional Animal Care and Use Committee (IACUC) of the University of Kentucky.
Excitotoxic SCI was produced by intraspinal injection of the glutamatergic AMPA/metabotropic receptor agonist quisqualic acid (QUIS) as previously described. Briefly, rats were anesthetized with a mixture of ketamine and xylazine (intraperitoneally, IP). Animals were placed in a stereotaxic unit and the spinal column immobilized with a vertebral clamp. One injection window for intraspinal injection was made by laminectomy between spinal segments T12-L1. Injections of 125 mM QUIS was made unilaterally at three levels of the cord by convection enhanced delivery. Injections, spaced 0.3 mm apart, were made at a depth of 1000 μm below the surface in segments T12-L1 between the dorsal root entry zone and the dorsal vein. These coordinates place injections in the center of the gray matter between spinal laminae IV-VI. The total volume of QUIS injected was 1.2 μl (0.4 μl each site, delivered over 4 minutes). Following injections, muscles were sutured over the laminectomy site, and the skin closed with wound clips.
(§1) Twenty-four male SD rats were randomly assigned to three groups: (A) FluBZ treatment plus intraspinal injection of QUIS (n=10); (B) vehicle treatment plus intraspinal injection of QUIS (n=10); and (C) Sham operation (intraspinal injection of saline, n=4). Assessment of excessive grooming behavior was used to evaluate the effects of FluBZ or vehicle on the development of the spontaneous pain behavior following excitotoxic SCI. The survival time of animals consisted of a period of 4 weeks or until tissue damage progressed beyond the superficial layers of skin, at which time (<4 weeks) animals were euthanized. […]
Assessment of the spontaneous pain-related excessive grooming behavior was performed as described in previous studies. […] Quantitative analysis of spontaneous excessive grooming pain behavior consisted of the incidence, onset time, mean area of skin damage, and severity of overgrooming pain behaviors for all animals as previously described.
Data related to the onset time, area of grooming-induced skin damage, and immunofluorescent number of object and mean intensity are expressed as mean ±standard error of mean (SEM) and analyzed by using a commercially available computer program (StatView; SAS Institute, Inc, Cary, N.C.). […]

acetylated α-tubulin = experiment: Immunofluorescence of acetylated α-tubulin in spinal dorsal horn after excitotoxic SCI; assay type: in vivo, rat; settings: IP for 7 days from 3 h post-QUIS; lesion site, 28 days after injury; vs vehicle, p<0.001
Text: as §1, with “euthanized. FluBZ (10 mg/kg/day) or vehicle was intraperitoneally injected once daily for a period of 7 days post-injection of QUIS. The FluBZ or vehicle treatment began at 3 h post-QUIS injection. FluBZ (Sigma) was dissolved in 0.9% saline plus 0.01% Tween 80 (Vehicle).” for “euthanized.”
(§2) The stereological analysis of image data within dorsal horn of spinal cord in sham or QUIS-injured animals with treatment of FluBZ or vehicle will be performed using NIS-Elements AR program. Serial double-labeled immunofluorescent signal images of spinal cord sections at lesion epicenter and 2 mm rostral and caudal to the lesion site were analyzed using methods of Binary Layers and Automated Measurement Results. […]

[2] = system: α-tubulin N-acetyltransferase ATAT1/MEC-17; experiment: Immunofluorescence of α-tubulin acetyltransferase MEC-17 in spinal dorsal horn after excitotoxic SCI; assay type: in vivo, rat; settings: IP for 7 days from 3 h post-QUIS; lesion site, 28 days after injury; vs vehicle, p<0.01
Text: as §1, with “euthanized. FluBZ (10 mg/kg/day) or vehicle was intraperitoneally injected once daily for a period of 7 days post-injection of QUIS. The FluBZ or vehicle treatment began at 3 h post-QUIS injection. FluBZ (Sigma) was dissolved in 0.9% saline plus 0.01% Tween 80 (Vehicle).” for “euthanized.”
as §2

endosomal EEA1-NR1 = experiment: Immunofluorescence of endosomal EEA1-NMDAR1 (NR1) dual signal in spinal dorsal horn after excitotoxic SCI; assay type: in vivo, rat; settings: post-treatment, 28 days post-excitotoxic injury; vs vehicle, p<0.001
Text: as §1, with “euthanized. FluBZ (10 mg/kg/day) or vehicle was intraperitoneally injected once daily for a period of 7 days post-injection of QUIS. The FluBZ or vehicle treatment began at 3 h post-QUIS injection. FluBZ (Sigma) was dissolved in 0.9% saline plus 0.01% Tween 80 (Vehicle).” for “euthanized.”
as §2

endosomal EEA1-pERK1/2 = experiment: Immunofluorescence of endosomal EEA1-pERK1/2 dual signal in spinal dorsal horn after excitotoxic SCI; assay type: in vivo, rat; settings: IP treatment, 28 days post-injury; vs vehicle, p<0.001
Text: as §1, with “euthanized. FluBZ (10 mg/kg/day) or vehicle was intraperitoneally injected once daily for a period of 7 days post-injection of QUIS. The FluBZ or vehicle treatment began at 3 h post-QUIS injection. FluBZ (Sigma) was dissolved in 0.9% saline plus 0.01% Tween 80 (Vehicle).” for “euthanized.”
as §2

mitochondrial cyclin B1 = experiment: Immunofluorescence of mitochondrial cyclin B1 (cyclin B1/VDAC1 dual signal) in spinal dorsal horn after excitotoxic SCI; assay type: in vivo, rat; settings: 10 mg/kg/day for 7 days post-injury; 28 days following injury; vs vehicle, p<0.001
Text: as §1, with “euthanized. FluBZ (10 mg/kg/day) or vehicle was intraperitoneally injected once daily for a period of 7 days post-injection of QUIS. The FluBZ or vehicle treatment began at 3 h post-QUIS injection. FluBZ (Sigma) was dissolved in 0.9% saline plus 0.01% Tween 80 (Vehicle).” for “euthanized.”
as §2

[3] = cited from earlier work
[4] = rats, pigs, sheep, dogs or humans; cited from earlier work

Row | Structure (SMILES) | incidence of pain behavior ([1]; 10 mg/kg/day IP for 7 days, starting 3 h post-injury, vehicle-treated control 75%) [%] | onset of excessive grooming pain behaviors ([1]; 10 mg/kg/day IP once daily for 7 days, starting 3 h post-QUIS, vehicle average onset 11 days, n=10) | size of the grooming area (skin damage) ([1]; 10 mg/kg/day for one week post-excitotoxic injury, vs vehicle, p<0.001) | severity of grooming class ([1]; 10 mg/kg/day for one week post-excitotoxic injury, vs vehicle, p<0.01) | α-tubulin acetylation in the spinal dorsal horn (acetylated α-tubulin) | expression of acetyltransferase MEC-17 in the spinal dorsal horn [2] | endosomal EEA1-NR1 fluorescent signals in the dorsal horn (endosomal EEA1-NR1) | endosomal EEA1-pERK1/2 fluorescent binary number object, binary area fraction, binary area, and mean intensity in the dorsal horn (endosomal EEA1-pERK1/2) | mitochondrial cyclin b1 activity in the dorsal horn (mitochondrial cyclin B1) | solubility in aqueous systems [3] | bioavailability after oral treatment [4]
1 | COC(=O)Nc1nc2cc(C(=O)c3ccc(F)cc3)ccc2[nH]1 [FluBZ, Flubendazole] | 40 | 19 days after excitotoxic injury | significant reduction | significant reduction | significantly decreased | significantly decreased | significantly suppressed | significantly inhibited | significantly reduced | poorly soluble | very low
2 | COC(=O)Nc1nc2ccc(Sc3ccccc3)cc2[nH]1 [FBZ, fenbendazole] |  |  |  |  |  |  |  |  |  | poorly soluble | very low
